Consider 25 compounds from patent US11420973B2, “Amide substituted indole compounds useful as TLR inhibitors” (BRISTOL-MYERS SQUIBB COMPANY, priority 2017, dated 2022).

pIC50: −log10 of the molar value. Where two headings read alike, the source gives them in different places.

In experiment [1] the target is human TLR7 (Homo sapiens (Human), UniProt Q9NYK1). Nature of the experiment: TLR7 inhibition reporter assay (HEK-Blue SEAP reporter, gardiquimod stimulation). The format is cell-based. As to conditions: HEK-Blue cells overexpressing human TLR7, gardiquimod 7.5 μM. In general terms: A reporter such as luciferase makes a cellular process visible.
Experimental: (§1) HEK-Blue™-cells (Invivogen) overexpressing human TLR7, TLR8 or TLR9 receptors were used for screening inhibitors of these receptors using an inducible SEAP (secreted embryonic alkaline phosphatase) reporter gene under the control of the IFN-β minimal promoter fused to five NF-κB and AP-1-binding sites. Briefly, cells are seeded into Greiner 384 well plates (15000 cells per well for TLR7, 20,000 for TLR8 and 25,000 for TLR9) and then treated with test compounds in DMSO to yield a final dose response concentration range of 0.05 nM-50 μM. After a 30 minute compound pre-treatment at room temperature, the cells are then stimulated with a TLR7 ligand (gardiquimod at a final concentration of 7.5 μM), TLR8 ligand (R848 at a final concentration of 15.9 μM) or TLR9 ligand (ODN2006 at a final concentration of 5 nM) to activate NF-κB and AP-1 which induce the production of SEAP. After a 22 hour incubation at 37° C., 5% CO2, SEAP levels are determined with the addition of HEK-Blue™ Detection reagent (Invivogen), a cell culture medium that allows for detection of SEAP, according to manufacturer's specifications.
Experiment [2] addresses human TLR8 (Homo sapiens (Human), UniProt Q9NR97). The experiment can be described thus: TLR8 inhibition reporter assay (HEK-Blue SEAP reporter, R848 stimulation).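 Further: SEAP driven by IFN-β minimal promoter with NF-κB and AP-1 sites, 22 h incubation, compounds 0.05 nM–50 µM, inhibition scaled between agonist plus DMSO and reference inhibitor wells.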
Experimental: as §1
Experiment [3] concerns the target human TLR9 (Homo sapiens (Human), UniProt Q9NR96). The experiment can be described thus: TLR9 inhibition reporter assay (HEK-Blue SEAP reporter, ODN2006 stimulation).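 Further: SEAP reporter under IFN-β minimal promoter with five NF-κB and AP-1 sites, 22 h incubation, compounds 0.05 nM–50 µM, inhibition relative to agonist plus DMSO versus known inhibitor.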
[4] abbreviates: read-out: TLR8 IC50, HEK-Blue cells overexpressing human TLR8, R848 15.9 μM, SEAP reporter.
Setting [5] is: read-out: TLR9 IC50, HEK-Blue cells overexpressing human TLR9, ODN2006 5 nM, SEAP reporter.

Sequence of human TLR7 (Q9NYK1 27-1049): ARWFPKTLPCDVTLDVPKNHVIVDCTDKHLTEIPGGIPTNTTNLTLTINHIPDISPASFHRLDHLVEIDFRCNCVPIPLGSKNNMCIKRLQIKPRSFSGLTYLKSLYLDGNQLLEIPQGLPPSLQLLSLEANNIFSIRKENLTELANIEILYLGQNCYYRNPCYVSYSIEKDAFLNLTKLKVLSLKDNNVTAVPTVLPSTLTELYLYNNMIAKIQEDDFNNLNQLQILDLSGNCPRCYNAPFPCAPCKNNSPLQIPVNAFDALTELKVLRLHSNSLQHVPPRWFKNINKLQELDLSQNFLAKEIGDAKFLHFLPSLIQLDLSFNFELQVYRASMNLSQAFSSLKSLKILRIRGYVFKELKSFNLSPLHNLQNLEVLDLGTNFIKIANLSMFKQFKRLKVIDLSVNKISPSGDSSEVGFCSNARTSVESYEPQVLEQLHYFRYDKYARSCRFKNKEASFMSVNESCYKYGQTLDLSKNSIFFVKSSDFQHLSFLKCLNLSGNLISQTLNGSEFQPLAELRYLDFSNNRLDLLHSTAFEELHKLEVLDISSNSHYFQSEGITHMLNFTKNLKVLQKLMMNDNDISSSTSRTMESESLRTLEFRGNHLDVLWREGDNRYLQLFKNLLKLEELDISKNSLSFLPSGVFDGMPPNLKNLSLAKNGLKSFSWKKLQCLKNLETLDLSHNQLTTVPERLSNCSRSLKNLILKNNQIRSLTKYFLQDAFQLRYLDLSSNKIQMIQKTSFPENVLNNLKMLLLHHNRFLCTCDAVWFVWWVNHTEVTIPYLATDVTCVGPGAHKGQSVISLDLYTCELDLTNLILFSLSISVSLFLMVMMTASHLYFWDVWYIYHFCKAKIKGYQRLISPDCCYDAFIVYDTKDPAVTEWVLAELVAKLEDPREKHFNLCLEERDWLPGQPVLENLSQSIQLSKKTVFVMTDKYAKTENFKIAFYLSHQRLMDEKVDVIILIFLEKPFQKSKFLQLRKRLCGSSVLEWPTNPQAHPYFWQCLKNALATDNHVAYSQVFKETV
Sequence of human TLR8 (Q9NR97 27-1041): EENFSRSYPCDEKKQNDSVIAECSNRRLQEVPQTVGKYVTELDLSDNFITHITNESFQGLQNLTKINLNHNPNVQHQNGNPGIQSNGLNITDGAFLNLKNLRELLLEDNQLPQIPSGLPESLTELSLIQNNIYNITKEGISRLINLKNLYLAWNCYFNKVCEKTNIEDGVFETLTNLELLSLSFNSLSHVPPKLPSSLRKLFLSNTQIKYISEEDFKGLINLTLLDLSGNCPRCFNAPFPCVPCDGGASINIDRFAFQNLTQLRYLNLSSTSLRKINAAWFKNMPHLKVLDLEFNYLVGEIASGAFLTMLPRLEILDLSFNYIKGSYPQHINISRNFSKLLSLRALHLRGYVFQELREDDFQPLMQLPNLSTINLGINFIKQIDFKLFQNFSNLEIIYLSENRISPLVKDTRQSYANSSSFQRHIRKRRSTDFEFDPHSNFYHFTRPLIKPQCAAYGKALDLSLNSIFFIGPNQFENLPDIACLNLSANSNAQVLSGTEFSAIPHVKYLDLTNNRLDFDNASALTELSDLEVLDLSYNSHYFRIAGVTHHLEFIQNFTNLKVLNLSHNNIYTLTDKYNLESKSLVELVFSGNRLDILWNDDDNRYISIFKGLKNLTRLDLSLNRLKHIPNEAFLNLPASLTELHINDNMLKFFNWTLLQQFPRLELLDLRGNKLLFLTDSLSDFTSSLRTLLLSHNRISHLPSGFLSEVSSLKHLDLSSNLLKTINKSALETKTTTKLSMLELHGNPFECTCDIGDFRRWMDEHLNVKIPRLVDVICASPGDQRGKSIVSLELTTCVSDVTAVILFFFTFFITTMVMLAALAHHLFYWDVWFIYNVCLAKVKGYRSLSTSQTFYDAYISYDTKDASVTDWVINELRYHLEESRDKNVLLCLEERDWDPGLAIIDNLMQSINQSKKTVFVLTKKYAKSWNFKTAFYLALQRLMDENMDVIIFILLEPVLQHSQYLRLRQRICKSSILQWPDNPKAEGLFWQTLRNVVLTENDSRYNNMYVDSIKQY
Sequence of human TLR9 (Q9NR96 26-1032): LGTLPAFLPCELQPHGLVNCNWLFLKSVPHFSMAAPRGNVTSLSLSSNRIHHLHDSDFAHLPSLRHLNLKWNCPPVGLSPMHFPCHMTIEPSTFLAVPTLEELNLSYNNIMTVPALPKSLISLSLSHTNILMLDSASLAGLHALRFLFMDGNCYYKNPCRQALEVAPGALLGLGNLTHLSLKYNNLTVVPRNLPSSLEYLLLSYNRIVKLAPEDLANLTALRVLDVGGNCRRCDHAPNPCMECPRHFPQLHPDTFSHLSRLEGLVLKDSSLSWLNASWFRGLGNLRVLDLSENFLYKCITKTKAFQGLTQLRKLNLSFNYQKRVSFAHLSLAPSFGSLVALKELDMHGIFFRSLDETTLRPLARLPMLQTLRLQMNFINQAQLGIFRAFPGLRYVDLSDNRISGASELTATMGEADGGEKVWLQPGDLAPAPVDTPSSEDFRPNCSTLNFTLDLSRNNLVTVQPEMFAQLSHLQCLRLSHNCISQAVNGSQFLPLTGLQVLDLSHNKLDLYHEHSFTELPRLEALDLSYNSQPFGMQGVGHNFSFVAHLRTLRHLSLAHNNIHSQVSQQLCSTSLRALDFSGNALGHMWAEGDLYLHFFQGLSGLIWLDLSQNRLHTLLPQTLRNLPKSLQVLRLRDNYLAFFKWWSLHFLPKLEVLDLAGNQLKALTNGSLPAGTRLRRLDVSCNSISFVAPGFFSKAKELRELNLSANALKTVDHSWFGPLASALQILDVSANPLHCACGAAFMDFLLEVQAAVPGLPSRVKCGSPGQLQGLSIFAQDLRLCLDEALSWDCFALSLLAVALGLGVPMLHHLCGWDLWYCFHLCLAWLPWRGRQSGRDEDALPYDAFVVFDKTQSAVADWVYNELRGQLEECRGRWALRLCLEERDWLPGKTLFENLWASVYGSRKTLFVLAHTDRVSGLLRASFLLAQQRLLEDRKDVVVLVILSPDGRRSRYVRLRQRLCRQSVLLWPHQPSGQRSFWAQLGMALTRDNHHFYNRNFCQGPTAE

On to `Cc1cc(-c2[nH]c3ccc(C(C)C(=O)NC4CCN(C(C)C)CC4)cc3c2C(C)C)ccn1` (stereo not drawn) [Example 194, 2-(3-isopropyl-2-(2-methylpyridin-4-yl)-1H-indol-5-yl)-N-(1-isopropylpiperidin-4-yl)propanamide], for which the pIC50 (as a rule, the IC50 on a negative log10 scale, so that one unit is a factor of ten) in experiment [1] is 6.82; in experiment [2], 6.97; in experiment [3], 5.41.
`Cc1cc(-c2[nH]c3ccc(C(C)C(=O)N[C@@H]4CCCNC4)cc3c2C(C)C)ccn1` (stereo partly drawn) [Example 195, 2-(3-isopropyl-2-(2-methylpyridin-4-yl)-1H-indol-5-yl)-N—((R)-piperidin-3-yl)propanamide]: the figures for the pIC50 in experiment [1], in experiment [2] (setting [4]) and in experiment [3] (setting [5]) were 6.56, 7.12 and 6.04, respectively.
For the compound `Cc1cc(-c2[nH]c3ccc(C(C)C(=O)N[C@@H]4CCCNC4)cc3c2C(C)C)ccn1` (stereo partly drawn) [Example 196, 2-(3-isopropyl-2-(2-methylpyridin-4-yl)-1H-indol-5-yl)-N—((R)-piperidin-3-yl)propanamide], the results for the pIC50 in experiment [1], in experiment [2] (setting [4]) and in experiment [3] (setting [5]) were 7.29, 7.06 and 6.06, respectively.
Consider `Cc1cc(-c2[nH]c3ccc(C(C)C(=O)N4CC5CN(C)CC5C4)cc3c2C(C)C)ccn1` (stereo not drawn) [Example 197, 2-(3-isopropyl-2-(2-methylpyridin-4-yl)-1H-indol-5-yl)-1-(5-methylhexahydropyrrolo[3,4-c]pyrrol-2(1H)-yl)propan-1-one], for which the values for the negative-log IC50 (pIC50) in experiment [1], in experiment [2] (setting [4]) and in experiment [3] (setting [5]) were 6.70, 6.89 and 5.48, respectively.
On to `Cc1cc(-c2[nH]c3ccc(C(C)C(=O)N4CCC5(CCN(C)C5)CC4)cc3c2C(C)C)ccn1` (stereo not drawn) [Example 198, 2-(3-isopropyl-2-(2-methylpyridin-4-yl)-1H-indol-5-yl)-1-(2-methyl-2,8-diazaspiro[4.5]decan-8-yl)propan-1-one], for which the pIC50 was 7.34 in experiment [1], 7.14 in experiment [2] (setting [4]) and 5.88 in experiment [3] (setting [5]).
In the same order, the values of `Cc1cc(-c2[nH]c3ccc(C(C)C(=O)N4CCC(CN)C4)cc3c2C(C)C)ccn1` (stereo not drawn) [Example 199, 1-(3-(aminomethyl)pyrrolidin-1-yl)-2-(3-isopropyl-2-(2-methylpyridin-4-yl)-1H-indol-5-yl)propan-1-one] are 6.35, 6.52 and 5.92.
Consider `Cc1cc(-c2[nH]c3ccc(C(C)C(=O)N4CCCC5(CCCCC5N)C4)cc3c2C(C)C)ccn1` (stereo not drawn) [Example 200, 1-(7-amino-2-azaspiro[5.5]undecan-2-yl)-2-(3-isopropyl-2-(2-methylpyridin-4-yl)-1H-indol-5-yl)propan-1-one], for which the pIC50 in experiment [1] (listed as 700) was 7.92; in experiment [2] (read-out: TLR8 IC50, HEK-Blue cells overexpressing human TLR8, R848 15.9 μM, SEAP reporter, listed as 700), 7.16; in experiment [3] (read-out: TLR9 IC50, HEK-Blue cells overexpressing human TLR9, ODN2006 5 nM, SEAP reporter, listed as 700), 6.16.
For the compound `Cc1cc(-c2[nH]c3ccc(C(C)C(=O)N4CCCC5(CCCCC5N)C4)cc3c2C(C)C)ccn1` (stereo not drawn) [Example 201, 1-(7-amino-2-azaspiro[5.5]undecan-2-yl)-2-(3-isopropyl-2-(2-methylpyridin-4-yl)-1H-indol-5-yl)propan-1-one], the negative-log IC50 (pIC50) in experiment [1] was 7.13; in experiment [2] (setting [4]), 7.15; in experiment [3] (setting [5]), 5.73.
In the same order, the values of `Cc1cc(-c2[nH]c3ccc(C(C)C(=O)N4CCC(CN)CC4)cc3c2C(C)C)ccn1` (stereo not drawn) [Example 202, 1-(4-(aminomethyl)piperidin-1-yl)-2-(3-isopropyl-2-(2-methylpyridin-4-yl)-1H-indol-5-yl)propan-1-one] are 6.76, 6.27 and 5.87.
As for `Cc1cc(-c2[nH]c3ccc(C(C)C(=O)N4CCC(N)CC4)cc3c2C(C)C)ccn1` (stereo not drawn) [Example 203, 1-(4-aminopiperidin-1-yl)-2-(3-isopropyl-2-(2-methylpyridin-4-yl)-1H-indol-5-yl)propan-1-one], the figures for the pIC50 in experiment [1], in experiment [2] (setting [4]) and in experiment [3] (setting [5]) were 6.53, 6.44 and 6.13, respectively.
On to `Cc1cc(-c2[nH]c3ccc(C(C)C(=O)N4CCC[C@H](N)C4)cc3c2C(C)C)ccn1` (stereo partly drawn) [Example 204, 1-((S)-3-aminopiperidin-1-yl)-2-(3-isopropyl-2-(2-methylpyridin-4-yl)-1H-indol-5-yl)propan-1-one], for which the figures for the pIC50 in experiment [1], in experiment [2] (setting [4]) and in experiment [3] (setting [5]) were 7.13, 6.92 and 6.03, respectively.
In the same order, the values of `Cc1cc(-c2[nH]c3ccc(C(C)C(=O)N4CCCC(CN)C4)cc3c2C(C)C)ccn1` (stereo not drawn) [Example 205, 1-(3-(aminomethyl)piperidin-1-yl)-2-(3-isopropyl-2-(2-methylpyridin-4-yl)-1H-indol-5-yl)propan-1-one] are 6.56, 6.47 and 5.61.
Take `Cc1cc(-c2[nH]c3ccc(C(C)C(=O)N4CCCC(CCN)C4)cc3c2C(C)C)ccn1` (stereo not drawn) [Example 206, 1-(3-(2-aminoethyl)piperidin-1-yl)-2-(3-isopropyl-2-(2-methylpyridin-4-yl)-1H-indol-5-yl)propan-1-one]: the values for the pIC50 in experiment [1], in experiment [2] (setting [4]) and in experiment [3] (setting [5]) were 6.29, 6.90 and 6.16, respectively.
In the same order, the values of `Cc1cc(-c2[nH]c3ccc(C(C)C(=O)N(C)C4CCNCC4)cc3c2C(C)C)ccn1` (stereo not drawn) [Example 207, 2-(3-isopropyl-2-(2-methylpyridin-4-yl)-1H-indol-5-yl)-N-methyl-N-(piperidin-4-yl)propanamide] are 6.76, 6.81 and 6.40.
In the same order, the values of `Cc1cc(-c2[nH]c3ccc(C(C)C(=O)NC[C@@H]4CCNC4)cc3c2C(C)C)ccn1` (stereo partly drawn) [Example 208, 2-(3-isopropyl-2-(2-methylpyridin-4-yl)-1H-indol-5-yl)-N—(((R)-pyrrolidin-3-yl)methyl)propanamide] are 5.89, 5.59 and 5.14.
In the same order, the values of `Cc1cc(-c2[nH]c3ccc(C(C)C(=O)N(C)C4CCCNC4)cc3c2C(C)C)ccn1` (stereo not drawn) [Example 209, 2-(3-isopropyl-2-(2-methylpyridin-4-yl)-1H-indol-5-yl)-N-methyl-N-(piperidin-3-yl)propanamide] are 6.99, 7.02 and 6.16.
Consider `Cc1cc(-c2[nH]c3ccc(C(C)C(=O)N(C)C4CCCNC4)cc3c2C(C)C)ccn1` (stereo not drawn) [Example 210, 2-(3-isopropyl-2-(2-methylpyridin-4-yl)-1H-indol-5-yl)-N-methyl-N-(piperidin-3-yl)propanamide], for which the pIC50 is 6.55 in experiment [1], 6.68 in experiment [2] (setting [4]) and 6.14 in experiment [3] (setting [5]).
In the same order, the values of `Cc1cc(-c2[nH]c3ccc(C(C)C(=O)N(C)C4CN5CCC4CC5)cc3c2C(C)C)ccn1` (stereo not drawn) [Example 211, 2-(3-isopropyl-2-(2-methylpyridin-4-yl)-1H-indol-5-yl)-N-methyl-N-(quinuclidin-3-yl)propanamide] are 7.30, 7.29 and 6.33.
In the same order, the values of `Cc1cc(-c2[nH]c3ccc(C(C)C(=O)NC[C@H]4CCNC4)cc3c2C(C)C)ccn1` (stereo partly drawn) [Example 212, 2-(3-isopropyl-2-(2-methylpyridin-4-yl)-1H-indol-5-yl)-N—(((S)-pyrrolidin-3-yl)methyl)propanamide] are 6.09, 5.83 and 5.30.
In the same order, the values of `Cc1cc(-c2[nH]c3ccc(C(C)C(=O)NCC4CCCNC4)cc3c2C(C)C)ccn1` (stereo not drawn) [Example 213, 2-(3-isopropyl-2-(2-methylpyridin-4-yl)-1H-indol-5-yl)-N-(piperidin-3-ylmethyl)propanamide] are 6.33, 6.62 and 5.58.
As for `Cc1cc(-c2[nH]c3ccc(C(C)C(=O)NC4C[C@H]5CC[C@@H](C4)N5C)cc3c2C(C)C)ccn1` (stereo partly drawn) [Example 214, 2-(3-isopropyl-2-(2-methylpyridin-4-yl)-1H-indol-5-yl)-N-((1R,5S)-8-methyl-8-azabicyclo[3.2.1]octan-3-yl)propanamide], the negative logarithm of the IC50 (pIC50) is 6.97 in experiment [1], 6.78 in experiment [2] (setting [4]) and 5.33 in experiment [3] (setting [5]).
In the same order, the values of `Cc1cc(-c2[nH]c3ccc(C(C)C(=O)N[C@@H]4CCCC[C@H]4N)cc3c2C(C)C)ccn1` (stereo partly drawn) [Example 215, N-((1R,2R)-2-aminocyclohexyl)-2-(3-isopropyl-2-(2-methylpyridin-4-yl)-1H-indol-5-yl)propanamide] are 6.83, 6.76 and 5.86.
As to `Cc1cc(-c2[nH]c3ccc(C(C)C(=O)N[C@@H]4CCCC[C@H]4N)cc3c2C(C)C)ccn1` (stereo partly drawn) [Example 216, N-((1R,2R)-2-aminocyclohexyl)-2-(3-isopropyl-2-(2-methylpyridin-4-yl)-1H-indol-5-yl)propanamide], the negative logarithm of the IC50 (pIC50) in experiment [1] is 6.88; in experiment [2] (setting [4]), 6.80; in experiment [3] (setting [5]), 5.98.
In the same order, the values of `Cc1cc(-c2[nH]c3ccc(C(C)C(=O)NC4CCC(N)CC4)cc3c2C(C)C)ccn1` (stereo not drawn) [Example 217, N-(4-aminocyclohexyl)-2-(3-isopropyl-2-(2-methylpyridin-4-yl)-1H-indol-5-yl)propanamide] are 6.78, 6.50 and 6.00.
On to `Cc1cc(-c2[nH]c3ccc(C(C)C(=O)NC4CCCC(N)C4)cc3c2C(C)C)ccn1` (stereo not drawn) [Example 218, N-(3-aminocyclohexyl)-2-(3-isopropyl-2-(2-methylpyridin-4-yl)-1H-indol-5-yl)propanamide], for which the pIC50 in experiment [1] is 6.10; in experiment [2] (setting [4]), 5.97; in experiment [3] (setting [5]) it was 5.85.
